Key:
[1] = biological target: T1, Recombinant human CASP1 (Homo sapiens, UniProt P29466); assay: CASP1 enzymatic assay: cleavage of glucocorticoid receptor (NR3C1) by recombinant CASP1; format: biochemical; details: for CASP1-induced cleavage of the glucocorticoid receptor (NR3C1): recombinant human CASP1, 30° C., inhibitor 10 μM unless otherwise indicated, FIG. 3A, 3C
T1 construct: purchased Enzo Life Sciences BML-AK701-0001
T1 sequence (P29466 120-297): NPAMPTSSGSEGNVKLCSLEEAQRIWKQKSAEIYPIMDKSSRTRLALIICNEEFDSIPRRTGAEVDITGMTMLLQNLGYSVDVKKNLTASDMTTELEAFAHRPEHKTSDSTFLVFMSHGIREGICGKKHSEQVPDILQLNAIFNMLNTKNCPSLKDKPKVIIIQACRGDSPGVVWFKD
T1 sequence (P29466 317-404): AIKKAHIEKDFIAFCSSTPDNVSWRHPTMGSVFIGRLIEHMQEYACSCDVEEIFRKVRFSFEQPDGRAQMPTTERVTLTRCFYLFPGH
Procedure: Recombinant human CASP1 (100-200 U, where U=1 pmol/min at 30° C., 200 μM YVAD-pNA (SEQ ID NO: 21)) from a CASP1 assay kit for drug discovery (Enzo Life Sciences, Farmingdale, N.Y., catalog number BML-AK701-0001) was incubated at 30° C. with wild-type or mutated GR in the presence (10 μM unless otherwise indicated) or absence of inhibitors, (Ac-YVAD-CHO (SEQ ID NO: 18), Enzo Life Sciences, Farmingdale, N.Y., catalog number BML-P403-9090), VX765, VRT-043198).
Cells were pelleted by centrifugation, washed once with PBS and lysed with RIPA buffer or caspase-1 assay buffer (Enzo Life Sciences, Farmingdale, N.Y. catalog number KI-111), equal amounts of proteins (1-20 μg) separated by 4-12% Novex Bis-Tris gels (Life Technologies, Grand Island, N.Y.), and then transblotted to PVDF membranes (Life Technologies, Grand Island, N.Y.). Anti-GR (1:1000-1:10,000, BD catalog number 611227), anti-DDK […] (1:1000, Origene catalog number TA50011), anti-Bim (1:1000, Cell Signalling catalog number 2819) or anti-Tubulin (1:1000, Santa Cruz, sc-8035) were used as primary antibodies followed by appropriate secondary HRP-conjugated IgG (1:1000, Dako) and immunocomplexes were visualized by chemiluminescence.

[2] = tested on: Nalm6 leukemia cell line; assay: MTT drug sensitivity assay in Nalm6 cells with enforced CASP1 expression or empty vector; format: cell-based, human; details: for increase in resistance (LC50) by CASP1 over-expression: Nalm6 cells transduced with CASP1, after activation of NLRP3 inflammasome (LPS/ATP), average
Procedure: Leukemia cells were isolated at diagnosis from patient bone marrow aspirates. If the leukemia cell percentage from diagnostic bone marrow samples was less than ninety percent, magnetic activated cell sorting (Miltenyl Biotec, Auburn, Calif.) was performed to further enrich for leukemia cells. If red cell contamination was greater than thirty percent, red blood cell lysis was performed. Cells were centrifuged at 300 g for five minutes and resuspended at a concentration of two million cells per milliliter. Eighty microliters of this leukemia cell suspension was then plated into each experimental well of round-bottom 96-well plates. Twenty microliters of decreasing concentrations of prednisolone were added and the plates were incubated for ninety-six hours in a humidified incubator containing 5% CO2 at 37° C. For the final six hours, ten microliters of 5 milligram per milliliter MTT (3-4,5-dimethylthiazol-2,5-diphenyl tetrazolium bromide) was added to each experimental well. Drug resistance assays in cell lines were performed using between 0.25 and 2.5 million cells per milliliter. Assays were developed and performed as for patient sample assays. LC50 values were determined as previously described (Holleman et al., 2004).
Full-length CASP1 (Origene, Rockville, Md., catalog # RC218364; GenBank Accession No. NM_033292) was subcloned into a lentiviral backbone (System Biosciences, Mountain View, Calif., catalog number CD527A-1), in frame with a T2A linked puromycin resistance gene. Lentivirus was produced in 293T cells and the Nalm6 leukemia cell line was transduced. 72 hours post transduction, cells were selected with 2.5 micrograms per milliliter puromycin. Where indicated cells were treated with 10 μg/mL LPS (InvivoGen, San Diego, Calif.) followed 2 hours later by 5 mM ATP (Roche, Pleasanton, Calif.).

[3] = tested on: NALM-6 cells overexpressing CASP1; format: cell-based, human; details: CASP1 overexpressing ALL (NALM-6) cells transduced with the named shRNA, +LPS/ATP, MTT, mean±S.E.M., n=4; read-out: LC50 (glucocorticoid sensitivity, prednisolone)
Procedure: The sensitivity (LC50) of shCASP1 and shNT cells to prednisolone was determined by MTT assays (Panel B). […] Error bars represent S.E.M; n=4 replicate experiments.
NALM-6 cells overexpressing CASP1 co-transfected with either non-targeting scrambled hairpin (shNT; SEQ ID NO: 13) or shRNA hairpins targeting CASP1 (shCASP1; SEQ ID NO: 14) were stably transduced with lentiviral vectors (Addgene plasmid 25890; Sigma-Aldrich, St. Louis, Mo.) containing a wild-type glucocorticoid receptor (SEQ ID NO: 16) or a glucocorticoid receptor in which both CASP1 cleavage sites had been eliminated (double mutagenized GR, DM-GR (SEQ ID NO: 17)).
Cells were centrifuged at 300 g for five minutes and resuspended at a concentration of two million cells per milliliter. Eighty microliters of this leukemia cell suspension was then plated into each experimental well of round-bottom 96-well plates. Twenty microliters of decreasing concentrations of prednisolone were added and the plates were incubated for ninety-six hours in a humidified incubator containing 5% CO2 at 37° C. For the final six hours, ten microliters of 5 milligram per milliliter MTT (3-4,5-dimethylthiazol-2,5-diphenyl tetrazolium bromide) was added to each experimental well. […] LC50 values were determined as previously described (Holleman et al., 2004). […]

| Molecule | CASP1-induced cleavage of the glucocorticoid receptor (NR3C1) [1] | increase in resistance (LC50) by CASP1 over-expression [2] | also measured |
| --- | --- | --- | --- |
| CCO[C@H]1OC(=O)C[C@@H]1NC(=O)[C@@H]1CCCN1C(=O)[C@H](NC(=O)c1ccc(N)c(Cl)c1)C(C)(C)C [VX765, (S)-1-((R)-2-(4-amino-3-chlorobenzamido)-3,3-dimethylbutanoyl)-N-((2S,3S)-2-ethoxy-5-oxotetrahydro-furan-3-yl)pyrrolidine-2-carboxamide] | inhibited | – | – |
| C[C@@H]1C[C@H]2[C@@H]3CCC4=CC(=O)C=C[C@]4(C)[C@@]3(F)[C@@H](O)C[C@]2(C)[C@@]1(O)C(=O)CO [dexamethasone] | – | 5.3 fold | – |
| shNT: non-targeting scrambled shRNA hairpin, control (CCGGCAACAAGATGAAGAGCACCAACTCGAGTTGGTGCTCTTCATCTTGTTGTTTTT) | – | – | CC50 [3]: 570 ± 423 µM |
| C[C@]12C=CC(=O)C=C1CC[C@@H]1[C@@H]2[C@@H](O)C[C@@]2(C)[C@H]1CC[C@]2(O)C(=O)CO [prednisolone] | – | 16.9 fold | difference in sensitivity on activation of the NLRP3 inflammasome and CASP1 ([2]; Nalm6 cells transduced with empty vector control virus): no difference |
| CC(C)(C)[C@@H](NC(=O)c1ccc(N)c(Cl)c1)C(=O)N1CCC[C@H]1C(=O)N[C@H](C=O)CC(=O)O [VRT043198, (S)-3-((S)-1-((R)-2-(4-amino-3-chlorobenzamido)-3,3-dimethylbutanoyl)pyrrolidine-2-carboxamido)-4-oxobutanoic acid] | inhibited | – | inhibitory activity on CASP1 cleavage of NR3C1 compared with VX-765 ([1]; FIG. 3C): higher inhibitory activity |

From patent US10457946B2, “Methods for overcoming glucocorticoid resistance and for determining glucocorticoid resistance potential in cancer” (St. Jude Children's Research Hospital, Inc., priority 2013, dated 2019)
